This note sets out measurements from ChEMBL document CHEMBL1142520, “Potent, selective and orally bioavailable dihydropyrimidine inhibitors of Rho kinase (ROCK1) as potential therapeutic agents for cardiovascular diseases” (J Med Chem, 2008).

What is called IC50 is the point on the concentration scale where inhibition reaches its midpoint. By bioavailability is commonly meant the share of a dose that reaches the circulation, judged against a reference dose that is usually intravenous. Broadly, the Vdss is the apparent volume that relates the amount in the body to the concentration in plasma or blood. Usually half-life stands for how long it takes for the measured level to halve. As usually defined, the clearance is the volume of plasma or blood freed of the substance per unit of time.

The target in data set [1] is Rho-associated protein kinase 1 (Homo sapiens, UniProt Q13464). In words: Inhibition of human recombinant ROCK1 kinase expressed in insect Sf9 cells by SPA.
Chain of Rho-associated protein kinase 1 (Q13464 whole entry): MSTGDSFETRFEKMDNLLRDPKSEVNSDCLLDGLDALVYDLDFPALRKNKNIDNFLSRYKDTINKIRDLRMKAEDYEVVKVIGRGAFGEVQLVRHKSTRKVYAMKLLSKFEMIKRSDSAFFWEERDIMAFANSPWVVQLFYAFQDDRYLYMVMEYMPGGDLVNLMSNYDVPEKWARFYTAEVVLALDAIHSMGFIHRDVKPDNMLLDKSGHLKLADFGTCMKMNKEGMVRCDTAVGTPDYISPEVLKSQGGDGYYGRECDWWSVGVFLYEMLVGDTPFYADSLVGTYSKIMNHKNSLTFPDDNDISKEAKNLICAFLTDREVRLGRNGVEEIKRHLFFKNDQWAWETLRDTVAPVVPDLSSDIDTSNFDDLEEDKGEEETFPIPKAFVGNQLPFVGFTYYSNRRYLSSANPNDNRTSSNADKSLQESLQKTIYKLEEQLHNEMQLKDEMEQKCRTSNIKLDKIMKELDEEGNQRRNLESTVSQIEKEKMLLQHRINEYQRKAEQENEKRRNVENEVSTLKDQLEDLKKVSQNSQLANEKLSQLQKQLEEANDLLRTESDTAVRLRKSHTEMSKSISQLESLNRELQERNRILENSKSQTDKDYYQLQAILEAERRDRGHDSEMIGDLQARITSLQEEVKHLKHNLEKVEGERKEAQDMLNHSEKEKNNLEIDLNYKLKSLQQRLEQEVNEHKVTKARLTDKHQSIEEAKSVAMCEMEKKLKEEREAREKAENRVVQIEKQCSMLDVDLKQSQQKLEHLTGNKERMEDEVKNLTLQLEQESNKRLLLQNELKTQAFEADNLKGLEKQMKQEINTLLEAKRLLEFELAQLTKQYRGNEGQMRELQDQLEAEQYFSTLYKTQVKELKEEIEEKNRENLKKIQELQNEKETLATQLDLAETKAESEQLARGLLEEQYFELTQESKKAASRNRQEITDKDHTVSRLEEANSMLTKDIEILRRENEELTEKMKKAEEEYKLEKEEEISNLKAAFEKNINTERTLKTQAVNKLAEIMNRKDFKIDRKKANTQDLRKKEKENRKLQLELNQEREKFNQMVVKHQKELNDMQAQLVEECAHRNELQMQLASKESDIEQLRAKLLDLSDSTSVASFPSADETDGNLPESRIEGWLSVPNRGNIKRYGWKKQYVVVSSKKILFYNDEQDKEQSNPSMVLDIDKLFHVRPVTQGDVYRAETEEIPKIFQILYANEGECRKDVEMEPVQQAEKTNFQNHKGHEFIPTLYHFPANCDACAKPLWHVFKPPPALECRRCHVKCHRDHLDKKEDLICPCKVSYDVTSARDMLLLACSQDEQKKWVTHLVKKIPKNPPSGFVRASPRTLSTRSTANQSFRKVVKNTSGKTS
Data set [2] can be described thus: Oral bioavailability in Sprague-Dawley rat at 1.2 mg/kg. Particulars: in vivo. The format is ADME, organism-based.
Data set [3] is described as follows: Oral bioavailability in Sprague-Dawley rat at 1.1 mg/kg. The data set is classed as ADME, organism-based. Conditions: in vivo.
In data set [4] the test system is Rattus norvegicus. Nature of the data set: (§1) Volume of distribution at steady state in Sprague-Dawley rat at 1.1 mg/kg, iv. The format is ADME, organism-based. Also on record: dose 1.1 mg/kg, route intravenous. Particulars: in vivo.
Data set [5] relates to Rattus norvegicus. In words: (§2) Half life in Sprague-Dawley rat at 1.1 mg/kg, iv. The data set is classed as ADME, organism-based. Also on record: dose 1.1 mg/kg, route intravenous. Conditions: in vivo.
The next data set concerns the target Cytochrome P450 3A4 (Homo sapiens, UniProt P08684). In words: Inhibition of CYP3A4. The format is ADME.
The target of a further data set is Cytochrome P450 2D6 (Homo sapiens, UniProt P10635). Nature of the data set: Inhibition of CYP2D6. The data set is classed as ADME.
Chain of Cytochrome P450 2D6 (P10635 whole entry): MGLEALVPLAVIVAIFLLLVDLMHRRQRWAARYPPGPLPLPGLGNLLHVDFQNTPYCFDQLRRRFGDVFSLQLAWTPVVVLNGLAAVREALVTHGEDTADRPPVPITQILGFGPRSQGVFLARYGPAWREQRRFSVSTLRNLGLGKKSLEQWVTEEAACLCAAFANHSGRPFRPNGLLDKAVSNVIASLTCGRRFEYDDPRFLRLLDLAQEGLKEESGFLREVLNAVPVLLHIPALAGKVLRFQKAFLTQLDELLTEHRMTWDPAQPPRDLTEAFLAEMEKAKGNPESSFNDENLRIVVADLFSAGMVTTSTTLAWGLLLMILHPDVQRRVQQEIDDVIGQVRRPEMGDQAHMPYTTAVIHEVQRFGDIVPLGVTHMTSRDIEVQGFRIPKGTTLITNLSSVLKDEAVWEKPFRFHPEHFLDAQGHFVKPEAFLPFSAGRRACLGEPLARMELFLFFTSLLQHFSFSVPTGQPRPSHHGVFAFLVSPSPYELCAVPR
For a further data set, the target named is Cytochrome P450 2C9 (Homo sapiens, UniProt P11712). Nature of the data set: Inhibition of CYP2C9. The data set is classed as ADME.
Chain of Cytochrome P450 2C9 (P11712 whole entry): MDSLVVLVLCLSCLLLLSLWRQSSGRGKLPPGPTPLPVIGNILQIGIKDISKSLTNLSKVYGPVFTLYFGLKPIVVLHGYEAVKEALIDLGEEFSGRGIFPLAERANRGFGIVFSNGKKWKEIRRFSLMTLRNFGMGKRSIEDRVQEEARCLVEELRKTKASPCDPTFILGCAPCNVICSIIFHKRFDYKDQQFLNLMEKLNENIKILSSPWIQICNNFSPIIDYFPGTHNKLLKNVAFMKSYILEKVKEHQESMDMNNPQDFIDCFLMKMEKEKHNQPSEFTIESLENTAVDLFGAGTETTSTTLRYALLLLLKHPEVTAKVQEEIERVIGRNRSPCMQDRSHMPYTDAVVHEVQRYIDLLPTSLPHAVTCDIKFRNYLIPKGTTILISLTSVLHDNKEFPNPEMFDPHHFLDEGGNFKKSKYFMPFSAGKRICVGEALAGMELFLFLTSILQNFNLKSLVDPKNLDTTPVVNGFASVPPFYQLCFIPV
Data set [6] in a line: Volume of distribution at steady state in Sprague-Dawley rat at 1.2 mg/kg, iv. The data set is classed as ADME, organism-based. Also on record: dose 1.2 mg/kg, route intravenous. Conditions: in vivo, read-out: Vdss.
Data set [7] in a line: Half life in Sprague-Dawley rat at 1.2 mg/kg, iv. Also on record: dose 1.2 mg/kg, route intravenous. Particulars: in vivo. The data set is classed as ADME, organism-based.
Data set [8] in a line: Clearance in Sprague-Dawley rat at 1.2 mg/kg, iv. The data set is classed as ADME, organism-based. Also noted: dose 1.2 mg/kg, route intravenous. Conditions: in vivo.
Data set [9] in a line: Oral bioavailability in Sprague-Dawley rat at 1.8 mg/kg. The data set is classed as ADME, organism-based. Conditions: in vivo.
Data set [10] can be described thus: Volume of distribution at steady state in Sprague-Dawley rat at 1.8 mg/kg, iv. The data set is classed as ADME, organism-based. Also on record: dose 1.8 mg/kg, route intravenous. Particulars: in vivo, read-out: Vdss.
The nature of data set [11]: Half life in Sprague-Dawley rat at 1.8 mg/kg, iv. The data set is classed as ADME, organism-based. Also noted: dose 1.8 mg/kg, route intravenous. Conditions: in vivo.
A short description of data set [12]: Clearance in Sprague-Dawley rat at 1.8 mg/kg, iv. The format is ADME, organism-based. Conditions: in vivo. Also noted: dose 1.8 mg/kg, route intravenous.
Another data set concerns Aorta. In words: Inhibition of phenylephrine-induced aortic ring contraction in Sprague-Dawley rat. The data set is classed as functional, tissue-based.
Data set [13] addresses Ribosomal protein S6 kinase beta-1 (Homo sapiens, UniProt P23443). In words: Inhibition of p70S6K.
Data set [14] deals with Ribosomal protein S6 kinase alpha-1 (Homo sapiens, UniProt Q15418). Nature of the data set: Inhibition of RSK1.
Chain of Ribosomal protein S6 kinase alpha-1 (Q15418 whole entry): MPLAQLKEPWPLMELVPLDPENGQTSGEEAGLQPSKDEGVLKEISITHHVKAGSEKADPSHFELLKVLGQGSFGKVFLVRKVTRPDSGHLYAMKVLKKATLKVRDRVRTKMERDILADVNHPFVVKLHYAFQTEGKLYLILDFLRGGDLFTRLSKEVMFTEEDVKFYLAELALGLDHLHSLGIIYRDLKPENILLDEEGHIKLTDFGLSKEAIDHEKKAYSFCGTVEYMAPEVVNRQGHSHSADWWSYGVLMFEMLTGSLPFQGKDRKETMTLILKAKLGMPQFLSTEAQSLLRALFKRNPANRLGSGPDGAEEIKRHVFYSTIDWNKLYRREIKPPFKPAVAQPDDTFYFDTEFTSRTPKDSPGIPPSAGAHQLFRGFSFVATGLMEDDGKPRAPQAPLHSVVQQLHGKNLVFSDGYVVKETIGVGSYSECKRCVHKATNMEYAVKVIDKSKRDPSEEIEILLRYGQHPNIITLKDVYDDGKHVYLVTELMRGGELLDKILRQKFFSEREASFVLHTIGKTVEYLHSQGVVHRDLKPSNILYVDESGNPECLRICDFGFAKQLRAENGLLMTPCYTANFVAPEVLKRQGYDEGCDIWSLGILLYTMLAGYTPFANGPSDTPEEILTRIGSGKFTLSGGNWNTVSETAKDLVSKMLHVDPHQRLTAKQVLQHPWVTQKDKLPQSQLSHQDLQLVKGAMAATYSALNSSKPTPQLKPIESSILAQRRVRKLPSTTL
Data set [15] in a line: as §1. The format is ADME, organism-based. Also noted: dose 1.1 mg/kg, route intravenous. Conditions: Sprague-Dawley, in vivo, read-out: Vdss.
Data set [16] is described as follows: as §2. The data set is classed as ADME, organism-based. Also on record: dose 1.1 mg/kg, route intravenous. Particulars: Sprague-Dawley, in vivo.
The nature of data set [17]: Clearance in Sprague-Dawley rat at 1.1 mg/kg, iv. Also on record: dose 1.1 mg/kg, route intravenous. The data set is classed as ADME, organism-based. Conditions: in vivo.
A short description of data set [18]: Oral bioavailability in monkey. Particulars: rhesus monkey, in vivo. The data set is classed as ADME, organism-based, Macaca mulatta.
A short description of data set [19]: Half life in monkey. The data set is classed as ADME, organism-based, Macaca mulatta. Conditions: rhesus monkey, in vivo.
The subject of data set [20] is Rattus norvegicus. Nature of the data set: Decrease in mean arterial pressure in conscious spontaneous hypertensive rat model at 30 mg/kg, po.
A short description of data set [21]: Volume of distribution at steady state in Sprague-Dawley rat at 1.3 mg/kg, iv. The data set is classed as ADME, organism-based. Also on record: dose 1.3 mg/kg, route intravenous. Particulars: in vivo, read-out: Vdss.
Data set [22] can be described thus: Clearance in Sprague-Dawley rat at 1.3 mg/kg, iv. The format is ADME, organism-based. Also noted: dose 1.3 mg/kg, route intravenous. Particulars: in vivo.
The nature of data set [23]: Half life in Sprague-Dawley rat at 1.3 mg/kg, iv. The format is ADME, organism-based. Also on record: dose 1.3 mg/kg, route intravenous. Conditions: in vivo.

Chain of Ribosomal protein S6 kinase beta-1 (P23443 whole entry): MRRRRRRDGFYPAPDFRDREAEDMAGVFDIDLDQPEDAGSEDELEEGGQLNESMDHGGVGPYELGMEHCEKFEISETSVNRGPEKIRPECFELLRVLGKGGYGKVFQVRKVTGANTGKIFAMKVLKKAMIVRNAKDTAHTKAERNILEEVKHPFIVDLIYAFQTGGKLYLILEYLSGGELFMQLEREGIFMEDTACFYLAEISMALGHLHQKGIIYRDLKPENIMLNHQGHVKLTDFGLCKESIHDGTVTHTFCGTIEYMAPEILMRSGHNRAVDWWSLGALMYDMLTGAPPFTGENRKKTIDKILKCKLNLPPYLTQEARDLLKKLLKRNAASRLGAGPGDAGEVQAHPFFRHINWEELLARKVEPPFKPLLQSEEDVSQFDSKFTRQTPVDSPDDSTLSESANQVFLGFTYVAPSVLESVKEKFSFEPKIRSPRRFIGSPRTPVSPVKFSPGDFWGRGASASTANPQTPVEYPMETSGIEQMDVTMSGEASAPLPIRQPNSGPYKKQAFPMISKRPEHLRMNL
Chain of Cytochrome P450 3A4 (P08684 whole entry): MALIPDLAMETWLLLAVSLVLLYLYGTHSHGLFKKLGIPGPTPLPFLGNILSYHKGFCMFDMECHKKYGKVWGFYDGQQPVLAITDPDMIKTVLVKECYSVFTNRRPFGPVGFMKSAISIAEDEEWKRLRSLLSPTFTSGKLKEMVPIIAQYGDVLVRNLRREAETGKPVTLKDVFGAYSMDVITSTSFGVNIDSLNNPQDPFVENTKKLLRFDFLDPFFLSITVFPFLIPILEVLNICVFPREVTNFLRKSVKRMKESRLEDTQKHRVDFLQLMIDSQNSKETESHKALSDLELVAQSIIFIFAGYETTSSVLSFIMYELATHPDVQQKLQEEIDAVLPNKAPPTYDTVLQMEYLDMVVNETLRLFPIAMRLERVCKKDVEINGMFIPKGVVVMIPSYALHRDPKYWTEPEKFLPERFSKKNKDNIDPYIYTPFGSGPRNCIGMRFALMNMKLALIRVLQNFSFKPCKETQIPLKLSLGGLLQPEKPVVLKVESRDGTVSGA

As for `CC1=C(C(=O)Nc2ccc3[nH]ncc3c2)C(c2ccc(F)cc2)N=C(c2cccc(C)c2)N1` (configuration not stated), the IC50 in data set [1] is 129 nM.

In the case of `COc1ccc(C2=NC(c3ccc(S(C)(=O)=O)cc3)C(C(=O)Nc3ccc4[nH]ncc4c3)=C(C)N2)cc1` (configuration not stated), the IC50 in data set [1] was 150 nM.

In turn, `CC1=C(C(=O)Nc2ccc3[nH]ncc3c2)C(c2ccc(F)cc2)N=C(c2ccncc2)N1` (configuration not stated) came in with a bioavailability in data set [2] of 0%. The IC50 in data set [1] was 8 nM.

Turning to `CC1=C(C(=O)Nc2ccc3[nH]ncc3c2)C(c2ccc(F)cc2)N=C(c2cnccn2)N1` (configuration not stated), the IC50 in [1] amounted to 105 nM.

`CC1=C(C(=O)Nc2ccc3[nH]ncc3c2)C(c2ccc(Cl)cc2F)N=C(c2ccnc(Cl)c2)N1` (configuration not stated) gave a bioavailability in [3] of 7%. This compound also came in with a Vdss in the data set on Rattus norvegicus [4] of 1.6 L/kg. This compound registered a t1/2 with Rattus norvegicus [5] of 1.03 h. In addition, the IC50 came to 5500 nM at Cytochrome P450 3A4, 5700 nM against Cytochrome P450 2D6 and 4 nM in data set [1].

In turn, `COc1cc(C2=NC(c3ccc(Cl)cc3F)C(C(=O)Nc3ccc4[nH]ncc4c3)=C(C)N2)ccn1` (configuration not stated) displayed a bioavailability in data set [3] of 21%. In addition, the Vdss in the data set on Rattus norvegicus [4] stood at 2 L/kg. In addition, the t1/2 with Rattus norvegicus [5] came out at 0.567 h. For the same compound, the IC50 against Cytochrome P450 3A4 was found to be 4300 nM; on Cytochrome P450 2D6, 3700 nM; in [1], 2 nM.

In the case of `CC1=C(C(=O)Nc2ccc3[nH]ncc3c2)C(c2ccc(F)cc2)N=C(c2cccc(C(F)(F)F)c2)N1` (configuration not stated), the IC50 in data set [1] came out at 288 nM.

The compound `COc1ccc(C2=NC(c3ccc(Cl)cc3F)C(C(=O)Nc3ccc4[nH]ncc4c3)=C(C)N2)cn1` (configuration not stated) registered a bioavailability in data set [3] of 27%. The 50% inhibitory concentration (IC50) against Cytochrome P450 3A4 stood at 2500 nM; at Cytochrome P450 2D6 it was 1200 nM; in data set [1], 3 nM.

For `COc1ccc(C2=NC(c3ccc(S(N)(=O)=O)cc3)C(C(=O)Nc3ccc4[nH]ncc4c3)=C(C)N2)cc1` (configuration not stated), the IC50 in data set [1] was found to be 68 nM.

With `CC1=C(C(=O)Nc2cc3cn[nH]c3cc2F)C(c2ccc(Cl)cc2F)N=C(c2ccnc(C)c2)N1` (configuration not stated), the IC50 in data set [1] stood at 10 nM.

`CC1=C(C(=O)Nc2ccc3[nH]ncc3c2)C(c2ccc(F)cc2)N=C(c2ccc(C)cc2)N1` (configuration not stated): the IC50 in data set [1] is 101 nM.

Take `CC1=C(C(=O)Nc2ccc3[nH]ncc3c2)C(c2ccc(F)cc2)N=C(c2ccc(C)c(F)c2)N1` (configuration not stated): in [1], the IC50 worked out at 104 nM.

As for `CC1=C(C(=O)Nc2ccc3[nH]ncc3c2)C(c2ccc(F)cc2)N=C(c2ccccn2)N1` (configuration not stated), the IC50 in [1] amounted to 180 nM.

For the compound `CC1=C(C(=O)Nc2ccc3[nH]nc(C)c3c2)C(c2ccc(Cl)cc2F)N=C(c2ccnc(Cl)c2)N1` (configuration not stated), the IC50 in data set [1] amounted to 15 nM.

Take `COc1cc(C2=NC(c3ccc(Cl)cc3F)C(C(=O)Nc3cc4cn[nH]c4cc3F)=C(C)N2)ccn1` (configuration not stated): in data set [3], the bioavailability is 53%. In addition, the Vdss in the data set with Rattus norvegicus [4] turned out to be 2.5 L/kg. The compound further returned a t1/2 in the data set on Rattus norvegicus [5] of 0.767 h. Besides, the IC50 is 5300 nM against Cytochrome P450 3A4, 8400 nM on Cytochrome P450 2C9, 2100 nM against Cytochrome P450 2D6 and 6 nM in data set [1].

As to `COc1ccc(C2=NC(c3ccc(F)cc3)C(C(=O)Nc3ccc4[nH]ncc4c3)=C(C)N2)cc1` (configuration not stated), the bioavailability in data set [2] worked out at 35%. In data set [6], the Vd is 5.1 L/kg. The compound also displayed a half-life in data set [7] of 2.82 h. This compound yielded a clearance in data set [8] of 55 mL/min/kg. The IC50 in data set [1] came to 46 nM.

Regarding `CC1=C(C(=O)Nc2ccc3[nH]ncc3c2)C(c2ccc(F)cc2)N=C(c2ccccc2)N1` (configuration not stated), the bioavailability in data set [9] came to 16%. For the same compound, the Vd in data set [10] is 0.8 L/kg. The half-life in data set [11] was 1 h. The same compound returned a clearance in [12] of 15 mL/min/kg. Also, the IC50 against Cytochrome P450 3A4 is 350 nM; on Cytochrome P450 2C9, 640 nM; against Cytochrome P450 2D6, 90 nM; in the data set on Aorta, 1300 nM; in data set [13], 4500 nM; in data set [14], 5300 nM. In [1], the IC50 was determined as 105 nM.

Regarding `COc1ccc(C2=NC(C)C(C(=O)Nc3ccc4[nH]ncc4c3)=C(C)N2)cc1` (configuration not stated), the IC50 in data set [1] is 863 nM.

In the case of `COc1ccc(C2=NC(c3ccc(C(F)(F)F)cc3F)C(C(=O)Nc3ccc4[nH]ncc4c3)=C(C)N2)cc1` (configuration not stated), the IC50 in data set [1] turned out to be 26 nM.

Take `COc1ccc(C2=NC(c3ccc(Cl)cc3F)C(C(=O)Nc3ccc4[nH]ncc4c3)=C(C)N2)cc1` (configuration not stated): in data set [3], the bioavailability was 58%. For the same compound, the Vd in data set [15] was 6.46 L/kg. In data set [16], this compound registered a half-life of 1.13 h. Besides, the clearance in data set [17] was determined as 108 mL/min/kg. Further, the IC50 was 2700 nM against Cytochrome P450 3A4; 200 nM on Cytochrome P450 2D6; 200 nM in the data set with Aorta; 2100 nM in data set [13]; 510 nM in data set [14]; 5 nM in data set [1].

On to `CC1=C(C(=O)Nc2ccc3[nH]ncc3c2)C(c2ccc(F)cc2)N=C(c2ccc(Cl)cc2)N1` (configuration not stated), for which, in data set [1], the IC50 was determined as 129 nM.

Turning to `CCOc1cc(C2=NC(c3ccc(Cl)cc3F)C(C(=O)Nc3cc4cn[nH]c4cc3F)=C(C)N2)ccn1` (configuration not stated), in data set [1], the IC50 is 11 nM.

With `CC1=C(C(=O)Nc2cc3cn[nH]c3cc2F)C(c2ccc(Cl)cc2F)N=C(c2ccnc(Cl)c2)N1` (configuration not stated), the bioavailability was found to be 19% in [18] and 49% in [3]. This compound also gave a half-life in [19] of 2.2 h. Also, in the data set with Rattus norvegicus [4], the Vdss came to 2 L/kg. Besides, in the data set on Rattus norvegicus [5], the t1/2 worked out at 1.75 h. For the same compound, the IC50 turned out to be 2500 nM at Cytochrome P450 2C9; 5200 nM against Cytochrome P450 2D6; 256 nM in the data set on Aorta; 1000 nM in [13]; 398 nM in data set [14]; 6 nM in data set [1]. In the data set with Rattus norvegicus [20], the Activity is 25 mmHg.

Consider `CC1=C(C(=O)Nc2ccc3[nH]ncc3c2)C(c2ccc(F)cc2)NC(=O)N1` (configuration not stated) [GSK-180736A], for which the Vd in data set [21] is 2.2 L/kg. Besides, the clearance in data set [22] is 49 mL/min/kg. In addition, in data set [23], the half-life was 0.7 h. Moreover, the IC50 in the data set with Aorta stood at 760 nM.

For `CC1=C(C(=O)Nc2ccc3[nH]ncc3c2)C(c2ccc(F)cc2)N=C(c2ccc(C(F)(F)F)nc2)N1` (configuration not stated) [GSK-317354A], the 50% inhibitory concentration (IC50) in data set [1] turned out to be 75 nM.
